Test results as given in patent US20080069809A1, “Compositions and methods for the diagnosis and treatment of cancer” (priority 2006, published 2008).

Legend:
EGFP-tagged mouse PKC-δ = EGFP-tagged mouse PKC-δ (Mus musculus, UniProt P28867); details: KG1a
Experimental: KG1a cells were transfected with PKC-δ-EGFP or pEGFP-N1 (vector control). At 24 hours after transfection, cells were treated with 0, 0.2, 2 and 20 μM PEP005 and cytospins prepared after 15 minutes. Slides were fixed with 2% v/v paraformaldehyde in PBS for 20 minutes, rinsed briefly in PBS and mounted in Vectashield containing DAPI (4.6 diamidino-2-phenylindole; Vector Laboratories, Burlingame, Calif.). Slides were examined using a Leica Fluorescence microscope (Leica, Heidelberg, Germany) fitted with ×60 oil immersion objective. Images were captured using a Hamanatsu C4742-95 camera (Grafter Imaging, Austin, Tex.) and analyzed using OpenLab 3.1 software (Improvision, Coventry, United Kingdom).

U937 = experiment: Differentiation (CD11b expression) in U937 cells; format: cell-based
Experimental: (§1) The myeloid leukemic cell lines HL60, NB60, NB4, U937, K562 and KG1a were all grown in RPMI 1640 medium (Life Technologies, Paisley, United Kingdom) supplemented with 10% v/v fetal calf serum (Sear Laboratories International Crawley, United Kingdom), 100 U/mL penicillin, and 100 μg/mL streptomycin (Sigma Aldrich, Poole, United Kingdom) at 37° C. and 5% v/v CO2. AML blasts were isolated from patient bone marrow aspirates and peripheral blood of eight patients at diagnosis or relapse. Patients were not receiving AML therapy at time of sampling. Blasts were isolated by Ficoll density centrifugation and were cultured in serum-free insulin transferrin selenium-positive (ITS+) medium (Life Technologies) containing 300 ng/mL stem cell factor (SCF) and 10 ng/mL interleukin 3 (IL3; R and D Systems, Abingdon, United Kingdom) and antibiotics. Blast purity ranged from 80% to 95%, as assessed by expression of CD34. Normal myeloblasts were isolated from cord blood or adult mobilized peripheral blood. Briefly, CD34^+ cells were indirectly selected from the mononuclear cell preparations using antibody-coated magnetic beads (Miltenyi Biotec, United Kingdom).
(§2) Cell differentiation was determined by staining of cells with anti-CD11b antibody as a general early marker of myeloid differentiation. In studies with HL60 cells, PEP005-treated and 20 nM phorbol myristate (PMA)-treated (Sigma Aldrich) cells were also assessed for their ability to phagocytose complement-coated yeast, a marker of a fully differentiated myeloid cell, as previously described (Toksoz et al, Leukemia Res 6:491-498, 1982). The ingestion of three or more yeasts was taken as a positive result. In normal cord blood or adult bone marrow myeloblasts, loss of CD34 was taken as a marker of differentiation. Isotype-matched controls were used and all antibodies were from DAKO (Cambridge, United Kingdom). […] Images were captured with a SPOT2 cameria (Diagnostic Instructions, Sterling Heights, Mich.) and analyzed using Image-Pro 4.0 software (Media Cybernetics, Silver Spring, Md.).

Normal CD34+ myeloblasts = experiment: Differentiation of normal CD34+ myeloblasts (loss of CD34, morphology); format: cell-based, human; details: doses of 20 nM to 2.0 μM PEP005
Experimental: (§3) The myeloid leukemic cell lines HL60, NB60, NB4, U937, K562 and KG1a were all grown in RPMI 1640 medium (Life Technologies, Paisley, United Kingdom) supplemented with 10% v/v fetal calf serum (Sear Laboratories International Crawley, United Kingdom), 100 U/mL penicillin, and 100 μg/mL streptomycin (Sigma Aldrich, Poole, United Kingdom) at 37° C. and 5% v/v CO2. AML blasts were isolated from patient bone marrow aspirates and peripheral blood of eight patients at diagnosis or relapse. Patients were not receiving AML therapy at time of sampling. […] Blast purity ranged from 80% to 95%, as assessed by expression of CD34. […]
as §2, with “1982).” for “1982). The ingestion of three or more yeasts was taken as a positive result. In normal cord blood or adult bone marrow myeloblasts, loss of CD34 was taken as a marker of differentiation. Isotype-matched controls were used and all antibodies were from DAKO (Cambridge, United Kingdom).”

[1] = system: EGFP-positive KG1a cells transfected with control vector; experiment: Apoptosis in KG1a cells transfected with control vector pEGFP; format: cell-based; details: even at 20 μM PEP005, 3 days
Experimental: (§4) KG1a cells were transiently transfected with EGFP-tagged mouse PKC-δ subcloned into pEGFP-N1 plasmid (available from National Cancer Institute [NCI], Bethesda, Md.) using an Amaxa nucleofection apparatus (Amaxa, Koeln, Germany). Transfection efficiency was approximately 35% as judged by fluorescence-activated cell sorter (FACS) analysis and cells were treated with PEP005 (0.2 μM-20 μM) 24 hours after transfection. Cell viability in EGFP-positive cells was assessed by analysis of cell morphology (forward scatter and side scatter profile) by FACS and loss of viability confirmed in the total cell culture by MTT assay after 3 days. Briefly, 24 hours after transfection, 2×10^4 cells were plated in five wells in 96-well plates and exposed to […] PEP005. At 72 hours, 20 μL MTT substrate at 5 mg/mL was added and plates were incubated at 37° C. After 3 hours, 150 μL media was removed and replated with 200 μL dimethyl sulfoxide (DMSO). Absorbance at an optical density (OD) of 550 nm was read on a Biotech plate reader (Amersham Pharmacia) and corrected for absorbance obtained from blank media controls.

NB4 = experiment: Differentiation (CD11b expression) in NB4 cells; format: cell-based; details: treated 5 days
Experimental: as §3
as §2, with “1982).” for “1982). The ingestion of three or more yeasts was taken as a positive result. In normal cord blood or adult bone marrow myeloblasts, loss of CD34 was taken as a marker of differentiation. Isotype-matched controls were used and all antibodies were from DAKO (Cambridge, United Kingdom).”

[2] = system: EGFP-positive PKC-δ-expressing KG1a cells; experiment: Apoptosis / viability in KG1a cells transfected with EGFP-PKC-δ; format: cell-based
Experimental: as §4

HL60 = experiment: Phagocytosis of complement-coated yeast by HL60 cells; format: cell-based; details: after 3 days of treatment, PMA 20 nM
Experimental: Cell differentiation was determined by staining of cells with anti-CD11b antibody as a general early marker of myeloid differentiation. In studies with HL60 cells, PEP005-treated and 20 nM phorbol myristate (PMA)-treated (Sigma Aldrich) cells were also assessed for their ability to phagocytose complement-coated yeast, a marker of a fully differentiated myeloid cell, as previously described (Toksoz et al, Leukemia Res 6:491-498, 1982). The ingestion of three or more yeasts was taken as a positive result. In normal cord blood or adult bone marrow myeloblasts, loss of CD34 was taken as a marker of differentiation. Isotype-matched controls were used and all antibodies were from DAKO (Cambridge, United Kingdom). […] Cells were also used to prepare cytospins, which were then differentially stained using a commercial May-Grünwald-Ginesa stain (Diff-Kwik; Gamidor, Abingdon, United Kingdom) to identify cells with a blast or differentiated or apoptotic morphology. Slides were examined using a Zeiss III RS brightfield microscope equipped with a 40×/0.75 water-immersion objective (Carl Zeiss, Jena, Germany). Images were captured with a SPOT2 cameria (Diagnostic Instructions, Sterling Heights, Mich.) and analyzed using Image-Pro 4.0 software (Media Cybernetics, Silver Spring, Md.).

KG1a = experiment: Apoptosis (sub-G1 DNA by FACS) in KG1a leukemic cells; format: cell-based; details: even at 20 μM PEP005
Experimental: as §1, with “Blast purity ranged from 80% to 95%, as assessed by expression of CD34.” left out
To determine the effects of ingenol-3-angelate (PEP005), cells were incubated for up to 5 days with medium alone or PEP005 at a range of concentrations from 0.2 nM to 20 μM. […] Apoptosis and differentiation were assessed after 1 to 5 days.

Chain of EGFP-tagged mouse PKC-δ (P28867 whole entry): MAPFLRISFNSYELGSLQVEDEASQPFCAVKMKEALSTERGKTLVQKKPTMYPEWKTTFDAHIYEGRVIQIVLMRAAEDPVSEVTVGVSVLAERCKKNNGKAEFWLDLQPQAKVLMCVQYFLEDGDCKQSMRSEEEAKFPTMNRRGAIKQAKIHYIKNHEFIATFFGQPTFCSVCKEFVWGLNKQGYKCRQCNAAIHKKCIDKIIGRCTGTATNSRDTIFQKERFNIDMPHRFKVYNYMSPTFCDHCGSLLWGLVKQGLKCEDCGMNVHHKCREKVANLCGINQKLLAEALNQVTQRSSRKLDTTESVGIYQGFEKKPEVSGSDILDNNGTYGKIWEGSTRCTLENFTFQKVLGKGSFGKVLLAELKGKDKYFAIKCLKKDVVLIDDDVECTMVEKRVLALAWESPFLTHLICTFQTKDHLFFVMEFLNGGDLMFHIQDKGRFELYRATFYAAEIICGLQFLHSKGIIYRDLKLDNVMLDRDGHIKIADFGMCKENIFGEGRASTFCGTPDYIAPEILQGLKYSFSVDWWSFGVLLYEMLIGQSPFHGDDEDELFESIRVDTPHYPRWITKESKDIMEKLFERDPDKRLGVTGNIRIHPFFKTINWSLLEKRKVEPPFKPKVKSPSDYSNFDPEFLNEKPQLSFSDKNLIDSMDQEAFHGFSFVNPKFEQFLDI

## C/C=C(/C)C(=O)O[C@H]1C(C)=C[C@]23C(=O)[C@@H](C=C(CO)[C@@H](O)[C@]12O)[C@H]1[C@@H](C[C@H]3C)C1(C)C [PEP005, ingenol-3-angelate]
EGFP-tagged mouse PKC-δ; 200 nM PEP005
  time to translocation of EGFP-tagged PKC-δ to the nuclear region: ≤ 5 min
EGFP-tagged mouse PKC-δ; from cytosol after PEP005 treatment
  translocation of EGFP-PKC-δ: induced its translocation to the nucleus and perinuclear region
U937
  predominant response (kinetic study): expressed CD11b as the predominant response before entering apoptosis
U937; 10 nM ATRA and 20 nM PEP005 in combination, 5 days
  synergy with ATRA in CD11b differentiation response: able to synergize with ATRA
U937; treated 5 days
  PEP005 concentration with optimal effect, CD11b expression: 20 nM
Normal CD34+ myeloblasts
  differentiation (loss of CD34, promyelocyte- and myelocyte-like morphologies): induced to differentiate
[1]
  apoptosis (forward and side scatter by FACS): resistant to PEP005-induced apoptosis
NB4
  PEP005 concentration with optimal effect, CD11b expression: 20 nM
[2]; PEP005, after 3 days
  viability of total cell population by MTT assay: Loss of viability was confirmed
[2]; PEP005 for 3 days, 24 hours after transfection, doses commensurate with those in HL60, U937 and NB4
  apoptosis (forward and side scatter by FACS): resulted in apoptosis
HL60
  differentiation to phagocytes (ability to phagocytose yeast): did not lead to production of phagocytic cells
KG1a
  entry into apoptosis: did not enter apoptosis
